Laboratory results as given in ChEMBL document CHEMBL4342415, “Inhibition of the Cytolytic Protein Perforin Prevents Rejection of Transplanted Bone Marrow Stem Cells in Vivo” (J Med Chem, 2020).
The source made the active and inactive calls. No cut-off for these calls is given here.

Experiments:
[1] = Solubility in water by HPLC analysis; assay type: physicochemical
[2] = Stability in CD1 mouse liver microsomes assessed as parent compound remaining level at 3 uM pre-incubated for 30 mins before NADPH addition by LC-MS/MS analysis; assay type: ADME, Microsome; details: read-out: Stability
[3] = Stability in Sprague-Dawley rat liver microsomes assessed as parent compound remaining level at 3 uM pre-incubated for 30 mins before NADPH addition by LC-MS/MS analysis; assay type: ADME, Microsome; details: read-out: Stability
[4] = Stability in human liver microsomes assessed as parent compound remaining level at 3 uM pre-incubated for 30 mins before NADPH addition by LC-MS/MS analysis; assay type: ADME, Microsome; details: read-out: Stability
[5] = Stability Milli-Q water at 10 uM incubated for 24 hrs by LC-MS/MS analysis; assay type: physicochemical; details: read-out: Stability
[6] = target: T1, Perforin-1 (Homo sapiens) (UniProt P14222); assay: Inhibition of perforin in human KHYG-1 cells pre-treated with compound for 20 mins assessed as reduction in KHYG-1 cells-mediated cell lysis of human K562 cells at 20 uM measured after 4 hrs by 51Cr release based gamma counting method
T1 sequence (whole entry): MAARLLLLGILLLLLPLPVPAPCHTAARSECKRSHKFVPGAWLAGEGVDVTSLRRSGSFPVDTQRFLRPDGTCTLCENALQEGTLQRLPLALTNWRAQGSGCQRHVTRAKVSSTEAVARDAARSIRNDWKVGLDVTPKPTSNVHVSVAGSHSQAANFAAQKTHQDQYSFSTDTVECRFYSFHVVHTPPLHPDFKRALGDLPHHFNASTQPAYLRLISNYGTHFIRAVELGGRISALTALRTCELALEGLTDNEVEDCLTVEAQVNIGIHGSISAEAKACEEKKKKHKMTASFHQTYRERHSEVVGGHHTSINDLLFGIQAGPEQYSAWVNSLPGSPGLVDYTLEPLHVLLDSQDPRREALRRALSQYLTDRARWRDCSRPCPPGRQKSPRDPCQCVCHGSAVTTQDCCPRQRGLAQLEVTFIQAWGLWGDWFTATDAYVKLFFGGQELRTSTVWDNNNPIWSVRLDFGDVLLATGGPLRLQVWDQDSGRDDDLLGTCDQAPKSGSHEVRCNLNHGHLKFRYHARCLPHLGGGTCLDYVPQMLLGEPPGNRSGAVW

[7] = Toxicity in human KHYG-1 cells assessed as cell viability at 10 uM after 24 h by trypan blue exclusion assay relative to control; assay type: cell-based; details: read-out: Activity
[8] = Protein binding in CD1 mouse plasma at 10 uM incubated for 6 hrs by LC-MS/MS analysis and equilibrium dialysis; assay type: ADME, cell-free; details: read-out: PPB (converted)
[9] = Half life in CD1 mouse at 150 mg/kg, ip measured during 15 mins to 24 hrs by LC-MS/MS analysis; assay type: ADME, organism-based; details: in vivo
[10] = Cmax in CD1 mouse at 150 mg/kg, ip measured during 15 mins to 24 hrs by LC-MS/MS analysis; assay type: ADME, organism-based; set-up: dose 150 mg/kg, route intraperitoneal; details: in vivo
[11] = AUC (0 to infinity) in CD1 mouse at 150 mg/kg, ip measured during 15 mins to 24 hrs by LC-MS/MS analysis; assay type: ADME, organism-based; set-up: dose 150 mg/kg, time infinity, route intraperitoneal; details: in vivo
[12] = Half life in CD1 mouse at 75 mg/kg, ip measured during 15 mins to 24 hrs by LC-MS/MS analysis; assay type: ADME, organism-based; details: in vivo
[13] = Cmax in CD1 mouse at 75 mg/kg, ip measured during 15 mins to 24 hrs by LC-MS/MS analysis; assay type: ADME, organism-based; set-up: dose 75 mg/kg, route intraperitoneal; details: in vivo
[14] = AUC (0 to infinity) in CD1 mouse at 75 mg/kg, ip measured during 15 mins to 24 hrs by LC-MS/MS analysis; assay type: ADME, organism-based; set-up: dose 75 mg/kg, route intraperitoneal, time infinity; details: in vivo
[15] = Half life in CD1 mouse at 90 mg/kg, ip measured during 15 mins to 24 hrs by LC-MS/MS analysis; assay type: ADME, organism-based; details: in vivo
[16] = Cmax in CD1 mouse at 90 mg/kg, ip measured during 15 mins to 24 hrs by LC-MS/MS analysis; assay type: ADME, organism-based; set-up: dose 90 mg/kg, route intraperitoneal; details: in vivo
[17] = AUC (0 to infinity) in CD1 mouse at 90 mg/kg, ip measured during 15 mins to 24 hrs by LC-MS/MS analysis; assay type: ADME, organism-based; set-up: dose 90 mg/kg, route intraperitoneal, time infinity; details: in vivo
[18] = Unbound fraction in human KHYG-1 cell media; assay type: ADME
[19] = Time at which unbound plasma concentration stays above IC50 in C57BL/6 mouse at 90 mg/kg, ip; assay type: ADME, organism-based; details: in vivo
[20] = system: Mus musculus; assay: Suppression of bone marrow transplant rejection in B6 mouse model of bone marrow transplantation receiving both allogeneic MHC- mismatched BALB/c stem cells and syngeneic MHC-matched B6 stem cells assessed as reduction in perforin-dependent NK cell-mediated graft rejection in peripheral blood at 125 mg/kg, ip dosed immediately prior to cell transfer and 18 hrs after cell transfer and measured after 24 hrs relative to control; assay type: functional; set-up: scale not given: the % may be the effect or the level left
[21] = Toxicity in B6 mouse model of bone marrow transplantation receiving both allogeneic MHC- mismatched BALB/c stem cells and syngeneic MHC-matched B6 stem cells assessed as drug tolerability at 125 mg/kg, ip dosed immediately prior to cell transfer and 18 hrs after cell transfer and measured after 24 hrs relative to control; assay type: organism-based; details: in vivo
[22] = system: Mus musculus; assay: Suppression of bone marrow transplant rejection in B6 mouse model of bone marrow transplantation receiving both allogeneic MHC- mismatched BALB/c stem cells and syngeneic MHC-matched B6 stem cells assessed as reduction in perforin-dependent NK cell-mediated graft rejection in spleen at 125 mg/kg, ip dosed immediately prior to cell transfer and 18 hrs after cell transfer and measured after 24 hrs relative to control; assay type: functional; set-up: scale not given: the % may be the effect or the level left

## O=C1NCc2ncc(-c3ccc(-c4cncc([N-]S(=O)(=O)c5ccc(F)cc5F)c4)s3)cc21.[Na+]
[1]
  solubility: 3770 µg/mL
[2]
  remaining at 3 µM: 83%
[3]
  remaining at 3 µM: 100%
[4]
  remaining at 3 µM: 95%
[5]
  remaining at 24 h, 10 µM: 93%

## COc1ncc(-c2ccc(-c3cnc4c(c3)CN(C)C4=O)s2)cc1[N-]S(=O)(=O)c1ccccc1C(F)(F)F.[Na+]
[1]
  solubility: 7340 µg/mL
[2]
  remaining at 3 µM: 91%
[3]
  remaining at 3 µM: 50%
[4]
  remaining at 3 µM: 63%

## CN1Cc2cc(-c3ccc(-c4cncc(NS(=O)(=O)c5cccc(C(F)(F)F)c5)c4)s3)cnc2C1=O [listing 1 of 2 here]
[6]
  inhibition: 40%

## O=C1NCc2ncc(-c3ccc(-c4cncc(NS(=O)(=O)c5ccc(F)cc5F)c4)s3)cc21 [listing 1 of 2 here]
[7]
  viability at 24 h, 10 µM: 100%
[8]
  fraction unbound at 6 h, 10 µM: 0.0011
[9]
  half-life: 5.5 h
[10]
  Cmax: 1320 µM
[11]
  AUC(0-inf): 7670 µM·h

## COc1ncc(-c2ccc(-c3cnc4c(c3)CN(C)C4=O)s2)cc1NS(=O)(=O)c1ccccc1C(F)(F)F
[7]
  viability at 24 h, 10 µM: 95.8%

## O=C1c2ccc(-c3ccc(-c4cncc(NS(=O)(=O)c5ccc(F)cc5F)c4)s3)cc2CN1CCN1CCOCC1
[6]
  inhibition: inactive

## COc1ncc(-c2ccc(-c3cnc4c(c3)CN(C)C4=O)s2)cc1[N-]S(=O)(=O)c1ccc(F)cc1F.[Na+]
[1]
  solubility: 18300 µg/mL
[2]
  remaining at 3 µM: 100%
[3]
  remaining at 3 µM: 100%
[4]
  remaining at 3 µM: 75%
[5]
  remaining at 24 h, 10 µM: 100%

## O=C1NCc2cc(-c3ccc(-c4cncc(NS(=O)(=O)c5ccc(F)cc5F)c4)s3)cnc21
[7]
  viability at 24 h, 10 µM: 49%

## O=C1NCc2cc(-c3ccc(-c4cncc([N-]S(=O)(=O)c5ccc(F)cc5F)c4)s3)cnc21.[Na+]
[1]
  solubility: 1130 µg/mL

## CN1Cc2cc(-c3ccc(-c4cncc(NS(=O)(=O)c5ccccc5C(F)(F)F)c4)s3)cnc2C1=O
[7]
  viability at 24 h, 10 µM: 100%

## CN1CCN(CCN2Cc3cc(-c4ccc(-c5cncc(NS(=O)(=O)c6ccc(F)cc6F)c5)s4)ccc3C2=O)CC1
[6]
  inhibition: inactive

## O=C1c2ccc(-c3ccc(-c4cncc(NS(=O)(=O)c5ccc(F)cc5F)c4)s3)cc2CN1CCN1CCCCC1
[6]
  inhibition: inactive

## CN1Cc2cc(-c3ccc(-c4cncc([N-]S(=O)(=O)c5cccc(C(F)(F)F)c5)c4)s3)cnc2C1=O.[Na+]
[1]
  solubility: 20300 µg/mL
[2]
  remaining at 3 µM: 88%
[3]
  remaining at 3 µM: 84%
[4]
  remaining at 3 µM: 46%

## COc1ncc(-c2ccc(-c3cnc4c(c3)CN(C)C4=O)s2)cc1[N-]S(=O)(=O)c1ccccc1[N+](=O)[O-].[Na+]
[1]
  solubility: 4810 µg/mL
[2]
  remaining at 3 µM: 95%
[3]
  remaining at 3 µM: 80%
[4]
  remaining at 3 µM: 94%
[5]
  remaining at 24 h, 10 µM: 100%

## CN(C)CCN1Cc2cc(-c3ccc(-c4cncc(NS(=O)(=O)c5ccc(F)cc5F)c4)s3)ccc2C1=O
[6]
  inhibition: inactive

## COc1ncc(-c2ccc(-c3cnc4c(c3)CN(C)C4=O)s2)cc1NS(=O)(=O)c1ccccc1[N+](=O)[O-]
[7]
  viability at 24 h, 10 µM: 95.8%
[8]
  fraction unbound at 6 h, 10 µM: 0.0009
[12]
  half-life: 1.6 h
[13]
  Cmax: 637 µM
[14]
  AUC(0-inf): 2240 µM·h

## COc1ncc(-c2ccc(-c3cnc4c(c3)CN(C)C4=O)s2)cc1NS(=O)(=O)c1ccc(F)cc1F
[7]
  viability at 24 h, 10 µM: 90.6%
[8]
  fraction unbound at 6 h, 10 µM: 0.0009
[15]
  half-life: 18.9 h
[16]
  Cmax: 1310 µM
[17]
  AUC(0-inf): 42500 µM·h
[18]
  fraction unbound: 0.255
[19]
  Time: 5 to 6 h
[20]
  Activity: 66%
[21]
  Activity: Non-Toxic
[22]
  Activity: 66%

## CN1Cc2cc(-c3ccc(-c4cncc([N-]S(=O)(=O)c5ccc(F)cc5F)c4)s3)cnc2C1=O.[Na+]
[1]
  solubility: 20300 µg/mL
[2]
  remaining at 3 µM: 100%
[3]
  remaining at 3 µM: 100%
[4]
  remaining at 3 µM: 80%
[5]
  remaining at 24 h, 10 µM: 100%

## O=C1c2ccc(-c3ccc(-c4cncc(NS(=O)(=O)c5ccc(F)cc5F)c4)s3)cc2CN1CC(O)CO (configuration not stated)
[6]
  inhibition: inactive

## O=C1c2ccc(-c3ccc(-c4cncc(NS(=O)(=O)c5ccc(F)cc5F)c4)s3)cc2CN1CCN1CCCC1
[6]
  inhibition: inactive

## O=C1NCc2ncc(-c3ccc(-c4cncc(NS(=O)(=O)c5ccc(F)cc5F)c4)s3)cc21 [listing 2 of 2 here]
[6]
  inhibition: 40%

## CN1Cc2cc(-c3ccc(-c4cncc(NS(=O)(=O)c5ccc(F)cc5F)c4)s3)cnc2C1=O
[7]
  viability at 24 h, 10 µM: 99.6%
[8]
  fraction unbound at 6 h, 10 µM: 0.0006
[15]
  half-life: 6.8 h
[16]
  Cmax: 860 µM
[17]
  AUC(0-inf): 10400 µM·h
[18]
  fraction unbound: 0.456

## O=C1c2ccc(-c3ccc(-c4cncc(NS(=O)(=O)c5ccc(F)cc5F)c4)s3)cc2CN1CCCO
[6]
  inhibition: inactive

## CN1Cc2cc(-c3ccc(-c4cncc([N-]S(=O)(=O)c5ccccc5C(F)(F)F)c4)s3)cnc2C1=O.[Na+]
[1]
  solubility: 4280 µg/mL
[2]
  remaining at 3 µM: 86%
[3]
  remaining at 3 µM: 36%
[4]
  remaining at 3 µM: 56%

## CN1Cc2cc(-c3ccc(-c4cncc(NS(=O)(=O)c5cccc(C(F)(F)F)c5)c4)s3)cnc2C1=O [listing 2 of 2 here]
[7]
  viability at 24 h, 10 µM: 97.8%
